Measurements reported in patent US11059795B2, “Androgen receptor modulators and methods for their use” (ESSA Pharma, Inc., priority 2018, dated 2021).

Legend:
[1] = Microsomal stability assay, human liver microsomes; assay type: in vitro ADME; details: 0.5 mg/mL protein, 37° C.; for microsomal CLint at 1 μM: pH 7.4, 1 μM compound, read-out: HLM +/− NADPH: Clint (μL/min/mg protein)
Outline: (§1)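 Compound at 1 μM was incubated at 37° C with 0.5 mg/mL liver microsomes and 1 mM NADPH and/or 1 mM UDPGA (with alamethicin) in 100 mM potassium phosphate pH 7.4, 3 mM MgCl2. Samples were taken at 0, 15, 30 and 60 min and measured by LC/MS/MS. t½ came from compound loss relative to 0 min, and Clint was scaled with 45 mg microsomal protein/g liver.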

[2] = Hepatocyte stability assay, mouse hepatocytes; assay type: in vitro ADME; details: 1 μM compound, 0.5 million cells/mL, 37° C.; for hepatocyte CLint at 1 μM: mouse, cryopreserved hepatocytes, read-out: MH +/− NADPH: Clint (μL/min/million cells)
Description: The […] of in vitro intrinsic clearance (Clint) for drug candidates in the early discovery stage is common practice in the pharmaceutical industry. The Clint values of drug candidates can help to confirm whether metabolism is the main clearance pathway when it is compared with the total body clearance in vivo. Hepatocytes are among the routinely used in vitro systems for measuring clearance. Hepatocytes have been reported to retain most of the phase I and phase II metabolic activities, and therefore, it is a useful tool to estimate the intrinsic clearance for potential drug candidates.
Metabolic stability of testing compound were be evaluated using human and mouse hepatocytes and can also be use rat, mouse, or other animal hepatocytes to predict intrinsic clearance. Cryopreserved hepatocytes were removed from the liquid nitrogen tank and thawed in a 37° C. water bath. As soon as the cells pulled away from the vial wall, they were decanted into 48 ml of warm HT medium. Cells were centrifuged for four minutes at 420 rpm (50 g). After removing the supernatant, pellet was re-suspended in warm DMEM medium. Cell density was counted by a hemacytometer.
The assay was carried out in 96-well microtiter plates. Compounds were incubated for 0, 60, 120, and 180 minutes at 37° C. with hepatocytes. Reaction mixtures (50 μL) contained a final concentration of 1 μM test compound, 0.5 million cells/mL hepatocytes in the DMEM medium. At each of the time points (for example, 0, 1, 2, and 3 hours), 200 μL of quench solution (100% acetonitrile with 0.1% formic acid) with internal standard was transferred to each well. Midazolam was included as a positive control to verify assay performance. Plates were sealed and centrifuged at 4° C. for 15 minutes at 4000 rpm. The supernatant is transferred to fresh plates for LC/MS/MS analysis.
Summarized conditions (customizable): [Compound]=[…], Positive control: midazolam and/or naloxone, [Hepatocyte]=0.5 million cells/Ml, time=0, 60, 120, and 180 min, t=37° C.
All samples were analyzed on LC/MS/MS using an AB Sciex API 4000 instrument, coupled to a Shimadzu LC-20AD LC Pump system. Analytical samples were separated using a Waters Atlantis T3 dC18 reverse phase HPLC column (20 mm×2.1 mm) at a flow rate of 0.5 mL/min. The mobile phase consisted of 0.1% formic acid in water (solvent A) and 0.1% formic acid in 100% acetonitrile (solvent B).
The extent of metabolism was calculated as the disappearance of the test compound, compared to the 0-min control reaction incubations. Initial rates were calculated for the compound concentration and used to determine t½ values and subsequently, the intrinsic clearance, Clint. Clint=(0.693)(1/t½(min))(mL incubation/million cells)

[3] = Microsomal stability assay, mouse liver microsomes; assay type: in vitro ADME; details: 1 μM compound, 0.5 mg/mL protein, 37° C.; for microsomal CLint at 1 μM: mouse, liver microsomes, pH 7.4, mouse liver microsomes, read-out: MLM +30/− NADPH: Clint (μL/min/mg protein)
Outline: as §1

[4] = target: T1, androgen receptor (AR) (Homo sapiens, UniProt P10275, T878A); test: Androgen-induced PSA (6.1 kb)-luciferase reporter assay in LNCaP cells; assay type: cell-based; details: LNCaP cells transfected with PSA (6.1 kb)-luciferase reporter, R1881 1 nM, 24 h; read-out: PSA-Luc IC50 Range
T1 construct: LNCaP cells were transiently transfected with the PSA (6.1 kb)-luciferase reporter for 24 h; endogenous in cells; host or cells: LNCaP
T1 sequence (P10275 1-920 T878A): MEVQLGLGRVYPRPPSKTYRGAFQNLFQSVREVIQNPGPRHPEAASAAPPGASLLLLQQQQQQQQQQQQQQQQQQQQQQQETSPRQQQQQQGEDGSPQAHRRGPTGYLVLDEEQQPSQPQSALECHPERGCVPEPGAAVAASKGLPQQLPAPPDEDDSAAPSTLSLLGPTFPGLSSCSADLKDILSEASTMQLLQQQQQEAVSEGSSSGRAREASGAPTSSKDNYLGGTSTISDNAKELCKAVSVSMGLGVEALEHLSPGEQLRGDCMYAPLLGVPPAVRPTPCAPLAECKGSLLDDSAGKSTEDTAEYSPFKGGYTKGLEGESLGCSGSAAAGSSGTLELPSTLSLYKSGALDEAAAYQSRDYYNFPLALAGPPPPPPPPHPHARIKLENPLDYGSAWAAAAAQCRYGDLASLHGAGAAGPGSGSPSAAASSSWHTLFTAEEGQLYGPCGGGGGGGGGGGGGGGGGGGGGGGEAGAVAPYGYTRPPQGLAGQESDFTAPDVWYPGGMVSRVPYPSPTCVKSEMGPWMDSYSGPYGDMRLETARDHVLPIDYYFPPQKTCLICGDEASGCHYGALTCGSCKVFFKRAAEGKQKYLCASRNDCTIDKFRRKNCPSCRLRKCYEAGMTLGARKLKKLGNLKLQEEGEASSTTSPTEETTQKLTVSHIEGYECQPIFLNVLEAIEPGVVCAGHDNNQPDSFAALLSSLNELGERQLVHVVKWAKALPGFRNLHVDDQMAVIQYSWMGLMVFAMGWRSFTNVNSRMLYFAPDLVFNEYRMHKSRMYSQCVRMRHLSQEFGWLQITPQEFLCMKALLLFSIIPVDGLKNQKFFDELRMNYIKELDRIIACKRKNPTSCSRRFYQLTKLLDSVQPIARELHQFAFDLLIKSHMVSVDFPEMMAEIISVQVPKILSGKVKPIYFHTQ
Outline: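 LNCaP cells carrying a PSA (6.1 kb) promoter-luciferase reporter with AREs; androgen-induced firefly luciferase read from lysates for 10 s. RLU normalized to protein content; IC50 calculated from the normalized data.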

SMILES | microsomal CLint at 1 μM [1] | hepatocyte CLint at 1 μM [2] | microsomal CLint at 1 μM [3] | IC50 [4] | HLM +/− NADPH: Clint (μL/min/mg protein) ([1]; 1 μM compound) | MH +/− NADPH: Clint (μL/min/million cells) [2] | MLM +30/− NADPH: Clint (μL/min/mg protein) ([3]; mouse liver microsomes)
CC(N)(c1ccc(OCc2ocnc2S(C)(=O)=O)cc1)c1cc(Cl)c(OCCCl)c(C#N)c1 (stereo not drawn) [Compound A105] | 12 to 48 µL/min/mg | ≥ 18 µL/min/1e6 cells | ≥ 48 µL/min/mg | > 2000 nM |  |  | 
CC(C)(c1ccc(OCc2ccnc(S(C)(=O)=O)n2)cc1)c1cc(Cl)c(OCCCl)c(C#N)c1 [Compound A124] | < 12 µL/min/mg | ≥ 18 µL/min/1e6 cells | ≥ 48 µL/min/mg | > 2000 nM |  |  | 
CC(C)(c1ccc(OCc2nnccc2NS(C)(=O)=O)cc1)c1cc(Cl)c(OCCCl)c(C#N)c1 [Compound A101] | ≥ 48 µL/min/mg | 4 to 18 µL/min/1e6 cells | 12 to 48 µL/min/mg | 500 to 2000 nM |  |  | 
CC(Oc1ccc(C(C)(C)c2cc(Cl)c(OCCCl)c(Cl)c2)cc1)c1[nH]cnc1S(C)(=O)=O (stereo not drawn) [Compound A116] | 12 to 48 µL/min/mg | 4 to 18 µL/min/1e6 cells | 12 to 48 µL/min/mg | 500 to 2000 nM |  |  | 
CC(C)(c1ccc(OCc2cc(NS(C)(=O)=O)ccn2)cc1)c1cc(Cl)c(OCCCl)c(C#N)c1 [Compound A196] | 12 to 48 µL/min/mg | < 4 µL/min/1e6 cells | < 12 µL/min/mg | 500 to 2000 nM |  |  | 
CC(C)(c1ccc(OCc2cnc(CN)o2)cc1)c1cc(Cl)c(OCCCl)c(C#N)c1 [Compound A192] | 12 to 48 µL/min/mg | ≥ 18 µL/min/1e6 cells | 12 to 48 µL/min/mg | < 500 nM |  |  | 
CC(C)(c1ccc(OCc2nccnc2NS(C)(=O)=O)cc1)c1cc(Cl)c(OCCCl)c(C#N)c1 [Compound A104] |  |  |  | < 500 nM | ** (** represents Cl in the range of 12-48 μL/min/mg protein) | * (* represents Cl in the range of ≥18 μL/min/million cells) | * (* represents Cl in the range of ≥48 μL/min/mg protein)
CC(C)(c1ccc(OCc2ccc(S(C)(=O)=O)o2)cc1)c1cc(Cl)c(OCCCl)c(C#N)c1 [Compound A168, 3-chloro-2-(2-chloroethoxy)-5-(2-(4-((5-(methylsulfonyl)furan-2-yl)methoxy)phenyl)propan-2-yl)benzonitrile] | < 12 µL/min/mg | 4 to 18 µL/min/1e6 cells | < 12 µL/min/mg | < 500 nM |  |  | 
Cc1oc(S(C)(=O)=O)nc1COc1ccc(C(C)(C)c2cc(Cl)c(OCCCl)c(C#N)c2)cc1 [Compound A80] | < 12 µL/min/mg | ≥ 18 µL/min/1e6 cells | 12 to 48 µL/min/mg | < 500 nM |  |  | 
CC(C)(c1ccc(OCc2cncnc2NS(C)(=O)=O)cc1)c1cc(Cl)c(OCCCl)c(C#N)c1 [Compound A148] | ≥ 48 µL/min/mg | < 4 µL/min/1e6 cells | < 12 µL/min/mg | 500 to 2000 nM |  |  | 
CC(Oc1ccc(C(C)(C)c2cc(Cl)c(OCCCl)c(C#N)c2)cc1)c1ocnc1S(C)(=O)=O (stereo not drawn) [Compound A87] | < 12 µL/min/mg | ≥ 18 µL/min/1e6 cells | 12 to 48 µL/min/mg | 500 to 2000 nM |  |  | 
CC(C)(c1ccc(OCc2nc(C(N)=O)cs2)cc1)c1cc(Cl)c(OCCCl)c(C#N)c1 [Compound A171, 2-((4-(2-(3-chloro-4-(2-chloroethoxy)-5-cyanophenyl)propan-2-yl)phenoxy)methyl)thiazole-4-carboxamide] | < 12 µL/min/mg | 4 to 18 µL/min/1e6 cells | < 12 µL/min/mg | 500 to 2000 nM |  |  | 
CC(C)(c1ccc(OCc2ocnc2S(C)(=O)=O)cc1)c1cc(Cl)c(OCC(Cl)CO)c(Cl)c1 (stereo not drawn) [Compound A97] | 12 to 48 µL/min/mg | ≥ 18 µL/min/1e6 cells | 12 to 48 µL/min/mg | < 500 nM |  |  | 
Cc1nc(N)cc(COc2ccc(C(C)(C)c3cc(Cl)c(OCCCl)c(C#N)c3)cc2)n1 [Compound A162] | 12 to 48 µL/min/mg | ≥ 18 µL/min/1e6 cells | ≥ 48 µL/min/mg | < 500 nM |  |  | 
Cc1cc(C(C)(C)c2ccc(OCc3csc(S(C)(=O)=O)n3)cc2)cc(C#N)c1OCCCl [Compound A86] | 12 to 48 µL/min/mg | ≥ 18 µL/min/1e6 cells | 12 to 48 µL/min/mg | < 500 nM |  |  | 
CC(Oc1ccc(C(C)(C)c2cc(Cl)c(OCCCl)c(C#N)c2)cc1)c1ncc(S(C)(=O)=O)o1 (stereo not drawn) [Compound A90] | < 12 µL/min/mg | ≥ 18 µL/min/1e6 cells | ≥ 48 µL/min/mg | 500 to 2000 nM |  |  | 
CC(C)(c1ccc(OCc2ncc(S(C)(=O)=O)[nH]2)cc1)c1cc(Cl)c(OCCCl)c(C#N)c1 [Compound A94] | 12 to 48 µL/min/mg | 4 to 18 µL/min/1e6 cells | 12 to 48 µL/min/mg | 500 to 2000 nM |  |  | 
Cc1cc(C(C)(C)c2ccc(OC(C)c3ocnc3S(C)(=O)=O)cc2)cc(C#N)c1OCCCl (stereo not drawn) [Compound A88] | ≥ 48 µL/min/mg | ≥ 18 µL/min/1e6 cells | ≥ 48 µL/min/mg | 500 to 2000 nM |  |  | 
CC(C)(c1ccc(OCc2nc(NS(C)(=O)=O)nc3c2CCC3)cc1)c1cc(Cl)c(OCCCl)c(C#N)c1 [Compound A202] | < 12 µL/min/mg | ≥ 18 µL/min/1e6 cells | ≥ 48 µL/min/mg | 500 to 2000 nM |  |  | 
CC(C)(c1ccc(OCc2nc(NS(C)(=O)=O)cs2)cc1)c1cc(Cl)c(OCCCl)c(C#N)c1 [Compound A137, N-(2-((4-(2-(3-Chloro-4-(2-chloroethoxy)-5-cyanophenyl)propan-2-yl)phenoxy)methyl)thiazol-4-yl)methanesulfonamide] | < 12 µL/min/mg | < 4 µL/min/1e6 cells | 12 to 48 µL/min/mg | < 500 nM |  |  | 
CC(C)(c1ccc(OCc2cnc(C(N)=O)o2)cc1)c1cc(Cl)c(CCCCl)c(C#N)c1 [Compound A114] | < 12 µL/min/mg | ≥ 18 µL/min/1e6 cells | 12 to 48 µL/min/mg | 500 to 2000 nM |  |  | 
